Measurements from patent EP0996436B1, “PHARMACEUTICAL FORMULATIONS CONTAINING POORLY SOLUBLE DRUG SUBSTANCES” (Sanofi-Aventis, priority 1997, dated 1998).

Tests used:
[1] = Solubility of SR48692 in polyethylene glycol/NaOH/water; type: physicochemical; settings: PEG/NaOH/H2O; mole equivalents of NaOH per mole of drug 1.0 and less
[2] = Dissolution rate of SR48692 capsules in deionized water pH 5.5 (USP Apparatus 2); type: physicochemical; settings: at the end of the experiment of 60 minutes, water pH 5.5 (unbuffered), 37°C
Method: The dissolution rate of 25 mg SR48692 solid dispersion in hard gelatin capsules were measured in deionized water (900 ml, pH=5.5, unbuffered) at 37°C. A USP dissolution system (Apparatus 2) with a paddle speed of 100 RPM was used. Dissolution rate was monitored by UV (Hewlett Packard 8452A) at 234 nm.
A screening dissolution test was run in USP Apparatus 2 with water at pH 5.5 (unbuffered) at 37°C comparing the solid dispersion of this invention (Example 2) with unformulated (jet-milled) SR48692. The solid dispersions provide enormous dissolution enhancement with respect to pure drug and low impurity levels (0.4%).

## SR48692
[1]
  solubility: Inadequate
[2]
  dissolved: < 10%
